The values that follow come from patent publication US10392404B2, “Compounds and compositions as kinase inhibitors” (NOVARTIS AG, priority 2014, dated 2019).

The IC50 is the concentration at which inhibition is half-maximal. Lower therefore signals greater potency in that assay.

For one assay, the target named is T1, b-Raf (V600E) (Homo sapiens, UniProt P15056, V600E).
T1 construct: made in house
Nature of the assay: In vitro Raf activity determination (Alpha Screen, biotinylated kinase-dead MEK1 substrate), B-Raf. The class given is biochemical. Particulars: b-Raf (V600E) approximately 4 pM; ATP 10 μM; pre-incubation 60 minutes; reaction 3 hours at room temperature. A digest of the protocol: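 Activated b-Raf(V600E) (~4 pM) pre-incubated 60 min with compound and biotinylated kinase-dead (K97R) MEK1 (~10 nM), then reacted 3 h at room temperature with 10 μM ATP in 50 mM Tris pH 7.5, 15 mM MgCl2, 0.01% BSA, 1 mM DTT. Phospho-MEK detected by AlphaScreen; IC50 by non-linear regression.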

Another assay has as its target T2, C-RAF (Homo sapiens, UniProt P04049, Y340E/Y341E).
T2 construct: His tag (implied by nickel chromatography) (cleaved yes); StrepII tag (cleaved yes); made in house; host or cells: Sf9 insect cells (baculovirus), CRAF and h14-3-3 zeta co-expressed; MEK1 substrate from E. coli
Nature of the assay: In vitro Raf activity determination (Alpha Screen, biotinylated kinase-dead MEK1 substrate), C-Raf. In kind it is biochemical. The note with it: c-Raf approximately 4 nM; ATP 1 μM; pre-incubation 60 minutes; reaction 1 hour at room temperature. The essentials:
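Full-length C-Raf carrying Y340E/Y341E, co-expressed with 14-3-3ζ in Sf9 cells, at approximately 4 nM, with approximately 10 nM biotinylated kinase-dead MEK1 (K97R) and 1 μM ATP, pH 7.5. Compound preincubated 60 min, reaction 1 hour at room temperature. Phospho-MEK read by AlphaScreen; IC50 by non-linear regression.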

T2 sequence (P04049 whole entry Y340E/Y341E): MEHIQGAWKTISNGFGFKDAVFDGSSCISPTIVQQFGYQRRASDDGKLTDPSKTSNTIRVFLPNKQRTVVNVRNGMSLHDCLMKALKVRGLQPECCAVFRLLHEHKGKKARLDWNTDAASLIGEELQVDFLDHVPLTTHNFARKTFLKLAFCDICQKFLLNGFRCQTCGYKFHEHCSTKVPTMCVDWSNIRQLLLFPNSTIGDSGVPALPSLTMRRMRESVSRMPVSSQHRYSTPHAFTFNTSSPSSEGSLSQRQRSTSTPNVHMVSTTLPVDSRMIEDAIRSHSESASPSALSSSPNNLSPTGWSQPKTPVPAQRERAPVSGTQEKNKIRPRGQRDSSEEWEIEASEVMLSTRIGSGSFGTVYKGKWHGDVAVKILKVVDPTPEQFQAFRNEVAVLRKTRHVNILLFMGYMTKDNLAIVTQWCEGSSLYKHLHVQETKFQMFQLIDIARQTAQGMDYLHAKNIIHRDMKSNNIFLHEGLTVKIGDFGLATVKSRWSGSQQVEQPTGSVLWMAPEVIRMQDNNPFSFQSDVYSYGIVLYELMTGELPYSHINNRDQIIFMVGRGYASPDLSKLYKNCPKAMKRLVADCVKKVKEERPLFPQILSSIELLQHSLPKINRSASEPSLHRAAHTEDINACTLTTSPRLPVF
T2 sequence (P63104 whole entry partner): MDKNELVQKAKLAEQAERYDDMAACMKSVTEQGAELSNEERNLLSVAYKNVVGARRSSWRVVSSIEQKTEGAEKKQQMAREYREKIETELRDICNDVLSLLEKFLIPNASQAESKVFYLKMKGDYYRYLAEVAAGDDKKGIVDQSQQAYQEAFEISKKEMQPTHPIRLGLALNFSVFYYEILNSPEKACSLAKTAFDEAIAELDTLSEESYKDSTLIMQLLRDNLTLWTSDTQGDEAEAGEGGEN
T1 sequence (P15056 whole entry V600E): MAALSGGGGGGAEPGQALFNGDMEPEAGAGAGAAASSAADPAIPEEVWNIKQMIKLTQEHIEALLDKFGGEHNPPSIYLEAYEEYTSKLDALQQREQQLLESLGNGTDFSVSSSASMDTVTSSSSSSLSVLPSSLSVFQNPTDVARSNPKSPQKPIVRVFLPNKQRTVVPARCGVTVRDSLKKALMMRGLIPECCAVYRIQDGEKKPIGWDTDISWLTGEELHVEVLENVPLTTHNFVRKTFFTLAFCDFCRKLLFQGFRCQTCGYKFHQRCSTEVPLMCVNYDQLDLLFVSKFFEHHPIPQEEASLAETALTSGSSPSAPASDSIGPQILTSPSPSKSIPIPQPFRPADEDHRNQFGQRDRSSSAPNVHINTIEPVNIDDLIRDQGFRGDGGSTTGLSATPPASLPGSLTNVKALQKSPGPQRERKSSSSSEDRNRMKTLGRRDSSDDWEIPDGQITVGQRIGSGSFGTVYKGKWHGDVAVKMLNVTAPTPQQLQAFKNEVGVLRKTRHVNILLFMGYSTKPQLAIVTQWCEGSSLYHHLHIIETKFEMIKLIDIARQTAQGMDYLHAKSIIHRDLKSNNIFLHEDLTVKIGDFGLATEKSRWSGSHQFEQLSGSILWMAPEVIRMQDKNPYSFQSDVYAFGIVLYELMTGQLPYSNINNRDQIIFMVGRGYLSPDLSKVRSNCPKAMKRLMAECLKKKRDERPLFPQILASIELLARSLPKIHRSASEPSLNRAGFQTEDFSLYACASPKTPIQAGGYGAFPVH

On to `Cc1ccc(NC(=O)c2ccnc(C(C)(C)O)c2)cc1-c1cnc(N2CC(C)(O)C2)c(C#N)c1` [Example 215, N-(3-(5-cyano-6-(3-hydroxy-3-methylazetidin-1-yl)pyridin-3-yl)-4-methylphenyl)-2-(2-hydroxypropan-2-yl)isonicotinamide], for which the IC50 worked out at 8.05 nM against b-Raf (V600E) and 1.28 nM on C-RAF.

With `Cc1ncc(NC(=O)c2cccc(C(F)(F)F)c2)cc1-c1cnc(C2CCOCC2)c(C#N)c1` [Example 128], the values for the IC50 against b-Raf (V600E) and on C-RAF were 1.34 nM and 0.202 nM, respectively.

For `Cc1ccc(NC(=O)c2ccnc(C(C)(C)C#N)c2)cc1-c1cnc(Cl)c(C#N)c1` [Example 32, N-(3-(6-chloro-5-cyanopyridin-3-yl)-4-methylphenyl)-2-(2-cyanopropan-2-yl)isonicotinamide], the IC50 came to 5.73 nM against b-Raf (V600E) and 1.03 nM against C-RAF.

Consider `Cc1ccc(NC(=O)c2ccnc(C3CC3)c2)cc1-c1cnc(N2CC(C)(O)C2)c(C#N)c1` [Example 219, N-(3-(5-cyano-6-(3-hydroxy-3-methylazetidin-1-yl)pyridin-3-yl)-4-methylphenyl)-2-cyclopropyl-isonicotinamide], for which the half-maximal inhibitory concentration (IC50) against b-Raf (V600E) was determined as 1.31 nM; at C-RAF it was 0.171 nM.

`Cc1ncc(NC(=O)c2ccnc(C(F)(F)F)c2)cc1-c1cnc(-c2ccn(C)c(=O)c2)c(C#N)c1` [Example 102, N-(5′-cyano-1″,2-dimethyl-2″-oxo-1″,2″-dihydro-[3,3′:6′,4″- terpyridin]-5-yl)-2-(trifluoromethyl) isonicotinamide]: the values for the half-maximal inhibitory concentration (IC50) against b-Raf (V600E) and on C-RAF were 3.14 nM and 0.66 nM, respectively.

Consider `Cc1ncc(NC(=O)c2ccnc(C(F)(F)F)c2)cc1-c1cnc(-c2c(C)nn(C)c2C)c(C#N)c1` [Example 112, N-(5′-cyano-2-methyl-6′-(1,3,5-trimethyl-1H-pyrazol-4-yl)-[3,3′-bipyridin]-5-yl)-2-(trifluoromethyl) isonicotinamide], for which the half-inhibitory concentration (IC50) is 17.6 nM on b-Raf (V600E) and 3.51 nM on C-RAF.

`Cc1ncc(NC(=O)c2ccnc(C(C)(C)C#N)c2)cc1-c1cnc(N2CCO[C@H](C)C2)c(C#N)c1` [Example 75, (R)-N-(5′-cyano-2-methyl-6′-(2-methylmorpholino)-[3,3′-bipyridin]-5-yl)-2-(2-cyanopropan-2-yl)isonicotinamide]: the half-inhibitory concentration (IC50) against b-Raf (V600E) was 3.79 nM; against C-RAF, 1.2 nM.

`Cc1ccc(NC(=O)c2cc(C(F)(F)F)ccn2)cc1-c1cnc(N2CCOCC2)c(C#N)c1` [Example 222, N-(3-(5-cyano-6-morpholinopyridin-3-yl)-4-methylphenyl)-4-(trifluoromethyl) picolinamide]: the half-maximal inhibitory concentration (IC50) against b-Raf (V600E) stood at 1 nM; against C-RAF it was 0.219 nM.

On to `Cc1ncc(NC(=O)c2cc(C(F)(F)F)ccn2)cc1-c1cnc(NC2CCOCC2)c(C#N)c1` [Example 227, N-(5′-cyano-2-methyl-6′-((tetrahydro-2H-pyran-4-yl)amino)-[3,3′-bipyridin]-5-yl)-4-(trifluoromethyl) picolinamide], for which the IC50 against b-Raf (V600E) came out at 3 nM; against C-RAF, 0.796 nM.

Turning to `COCCNc1ncc(-c2cc(NC(=O)c3cccc(C(F)F)c3)cnc2C)cc1C#N` [Example 199, N-(5′-cyano-6′-((2-methoxyethyl)amino)-2-methyl-[3,3′-bipyridin]-5-yl)-3-(difluoromethyl) benzamide], the figures for the IC50 at b-Raf (V600E) and at C-RAF were 2.62 nM and 0.386 nM, respectively.

As for `Cc1ccc(NC(=O)c2cnnc(C(F)(F)F)c2)cc1-c1cnc(N2CCOCC2)c(C#N)c1` [Example 208, N-(3-(5-cyano-6-morpholinopyridin-3-yl)-4-methylphenyl)-6-(trifluoromethyl) pyridazine-4-carboxamide], the IC50 was 0.397 nM against b-Raf (V600E) and 0.0967 nM against C-RAF.

Regarding `Cc1ccc(NC(=O)c2ccnc(S(C)(=O)=O)c2)cc1-c1cnc(N2CC(C)(O)C2)c(C#N)c1` [Example 217, N-(3-(5-cyano-6-(3-hydroxy-3-methylazetidin-1-yl)pyridin-3-yl)-4-methylphenyl)-2-(methylsulfonyl) isonicotinamide], the IC50 against b-Raf (V600E) worked out at 6.78 nM; against C-RAF, 1.07 nM.

Take `Cc1ccc(NC(=O)c2cc(C(C)(C)O)ccn2)cc1-c1cnc(N2CC(C)(O)C2)c(C#N)c1` [Example 236, N-(3-(5-cyano-6-(3-hydroxy-3-methylazetidin-1-yl)pyridin-3-yl)-4-methylphenyl)-4-(2-hydroxypropan-2-yl)picolinamide]: the values for the IC50 against b-Raf (V600E) and against C-RAF were 5.78 nM and 1.55 nM, respectively.

For `Cc1ccc(NC(=O)c2cc(C(C)(C)O)ccn2)cc1-c1cnc(N2CCOCC2)c(C#N)c1` [Example 237, N-(3-(5-cyano-6-morpholinopyridin-3-yl)-4-methylphenyl) 4-(2-hydroxypropan-2-yl)picolinamide], the IC50 turned out to be 2.25 nM against b-Raf (V600E) and 0.695 nM on C-RAF.

In the case of `COCCNc1ncc(-c2cc(NC(=O)c3cc(C(F)(F)F)ccn3)ccc2C)cc1C#N` [Example 228, N-(3-(5-cyano-6-((2-methoxyethyl)amino)pyridin-3-yl)-4-methylphenyl)-4-(trifluoromethyl) picolinamide], the values for the IC50 on b-Raf (V600E) and against C-RAF were 2 nM and 0.409 nM, respectively.

On to `Cc1ccc(NC(=O)c2ccnc(C(C)(C)C#N)c2)cc1-c1cncc(C#N)c1` [Example 35, 2-(2-cyanopropan-2-yl)-N-(3-(5-cyanopyridin-3-yl)-4-methylphenyl) isonicotinamide], for which the concentration for half-maximal inhibition (IC50) on b-Raf (V600E) came to 11.1 nM; against C-RAF, 1.95 nM.

As to `Cc1ccc(NC(=O)c2ccnc(C(C)C)c2)cc1-c1cnc(N2CCNCC2)c(C#N)c1` [Example 150, N-(3-(5-cyano-6-(piperazin-1-yl)pyridin-3-yl)-4-methylphenyl)-2-isopropyl-isonicotinamide], the values for the IC50 against b-Raf (V600E) and at C-RAF were 0.591 nM and 0.158 nM, respectively.

In the case of `Cc1ncc(NC(=O)c2cc(C(C)(C)O)ccn2)cc1-c1cnc(N2CCOCC2)c(C#N)c1` [Example 234, N-(5′-cyano-2-methyl-6′-morpholino-[3,3′-bipyridin]-5-yl)-4-(2-hydroxypropan-2-yl)picolinamide], the figures for the 50% inhibitory concentration (IC50) at b-Raf (V600E) and against C-RAF were 3.87 nM and 2.23 nM, respectively.

With `Cc1ncc(NC(=O)c2ccnc(C(C)(C)C#N)c2)cc1-c1cnc(OC2COC2)c(C#N)c1` [Example 94, N-(5′-cyano-2-methyl-6′-(oxetan-3-yloxy)-[3,3′-bipyridin]-5-yl)-2-(2-cyanopropan-2-yl)isonicotinamide], the values for the concentration for half-maximal inhibition (IC50) on b-Raf (V600E) and against C-RAF were 23.6 nM and 5.98 nM, respectively.

Turning to `Cc1ccc(NC(=O)c2cccc(C(F)(F)F)c2)cc1-c1cnc(-c2cnn(C)c2)c(C#N)c1` [Example 123, N-(3-(5-cyano-6-(1-methyl-1H-pyrazol-4-yl)pyridin-3-yl)-4-methylphenyl)-3-(trifluoromethyl) benzamide], the IC50 at b-Raf (V600E) came to 1.18 nM; against C-RAF it was 0.15 nM.

Regarding `Cc1ncc(NC(=O)c2ccnc(S(C)(=O)=O)c2)cc1-c1cnc(N(C)C)c(C#N)c1` [Example 271, N-(5′-cyano-6′-(dimethylamino)-2-methyl-[3,3′-bipyridin]-5-yl)-2-(methylsulfonyl) isonicotinamide], the 50% inhibitory concentration (IC50) was determined as 11.2 nM against b-Raf (V600E) and 1.15 nM at C-RAF.

For `Cc1ncc(NC(=O)c2cc(C(F)(F)F)ccn2)cc1-c1cnc(N2CC(C)(O)C2)c(C#N)c1` [Example 225, N-(5′-cyano-6′-(3-hydroxy-3-methylazetidin-1-yl)-2-methyl-[3,3′-bipyridin]-5-yl)-4-(trifluoromethyl) picolinamide], the IC50 against b-Raf (V600E) was 5 nM; at C-RAF, 1.08 nM.

As to `Cc1ccc(NC(=O)c2cc(C(F)(F)F)ccn2)cc1-c1cnc(N2CC(C)(O)C2)c(C#N)c1` [Example 224, N-(3-(5-cyano-6-(3-hydroxy-3-methylazetidin-1-yl)pyridin-3-yl)-4-methylphenyl)-4-(trifluoromethyl) picolinamide], the IC50 at b-Raf (V600E) came out at 2 nM; on C-RAF, 0.49 nM.

With `Cc1ccc(NC(=O)c2cc(C(C)(C)N)cc(C(F)(F)F)c2)cc1-c1cnc(N2CC(C)(O)C2)c(C#N)c1` [Example 248, 3-(2-aminopropan-2-yl)-N-(3-(5-cyano-6-(3-hydroxy-3-methylazetidin-1-yl)pyridin-3-yl)-4-methylphenyl)-5-(trifluoromethyl) benzamide], the half-inhibitory concentration (IC50) against b-Raf (V600E) worked out at 10.6 nM; against C-RAF, 2.02 nM.

Turning to `Cc1ccc(NC(=O)c2cccc(C(F)(F)F)c2)cc1-c1cnc(N(C)C)c(C#N)c1` [Example 15, N-(3-(5-cyano-6-(dimethylamino)pyridin-3-yl)-4-methylphenyl)-3-(trifluoromethyl) benzamide], the half-inhibitory concentration (IC50) against b-Raf (V600E) was 0.566 nM; at C-RAF it was 0.0734 nM.

`Cc1ccc(NC(=O)c2ccnc(C(C)(C)C#N)c2)cc1-c1cnc(N)c(C#N)c1` [Example 2, N-(3-(6-amino-5-cyanopyridin-3-yl)-4-methylphenyl)-2-(2-cyanopropan-2-yl) isonicotinamide]: the IC50 was determined as 3.07 nM on b-Raf (V600E) and 0.661 nM at C-RAF.

As for `Cc1ncc(NC(=O)c2cnnc(C(C)(C)C#N)c2)cc1-c1cnc(N2CCOCC2)c(C#N)c1` [Example 207, N-(5′-cyano-2-methyl-6′-morpholino-[3,3′-bipyridin]-5-yl)-6-(2-cyanopropan-2-yl)pyridazine-4-carboxamide], the IC50 against b-Raf (V600E) was 6.14 nM; against C-RAF it was 1.35 nM.
